Two compounds from ChEMBL document CHEMBL1129510, “Toward a novel metal-based chemotherapy against tropical diseases. 2. Synthesis and antimalarial activity in vitro and in vivo of new ruthenium- and rhodium-chloroquine complexes” (J Med Chem, 1996) can be followed below.

Common to all, as to format: functional, organism-based
Experiment [1] deals with Plasmodium berghei. Kind of experiment: In vitro inhibitory activity against Plasmodium berghei.
The subject of experiment [2] is Plasmodium falciparum. The experiment can be described thus: In vitro inhibitory activity against Plasmodium falciparum FcB1.
Experiment [3] deals with Plasmodium falciparum. Kind of experiment: In vitro inhibitory activity against Plasmodium falciparum FCB2.

As to `CCN(CC)CCCC(C)Nc1ccnc2cc(Cl)ccc12` (centres undefined) [CHLOROQUINE PHOSPHATE], in experiment [1] (Plasmodium berghei), the IC50 was 0.072 µM.
In the case of “Ruthenium-Chloroquine Complex[RuCl2(CQ)]2”, the concentration for half-maximal inhibition (IC50) in experiment [1] worked out at 0.018 µM; in experiment [2], 0.0105 µM; in experiment [3] it was 0.0465 µM.

A word on the IC50: it is the point on the concentration scale where inhibition reaches its midpoint.
